Reference: patent publication US20120115845A1, “THERAPEUTIC AGENTS” (priority 2007, published 2012)

Experiments:
[1] = target: T1, human GHS receptor (Homo sapiens, UniProt Q92847); assay: h bind IC50 (binding assay, Table 1); conditions: human receptor; Table 1
[2] = target: T1, human GHS receptor; assay: Ghrelin IP1 agonist assay (IP1 HTRF); assay type: cell-based; set-up: expressed in transfected cells; host or cells: HEK293s; conditions: for Emax: 2 h, agonist effect as % maximal effect of GHRP-6 (5 μM), read-out: h IP1 ag %; for EC50: HEK293s cells stably expressing human GHS receptor, 2 hours at 37° C., read-out: h IP1 ag EC50
Procedure, shortened: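 Cells: HEK293s stably expressing human GHS receptor, in stimulation buffer containing 0.02% fatty acid free BSA.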

T1 sequence (Q92847 whole entry): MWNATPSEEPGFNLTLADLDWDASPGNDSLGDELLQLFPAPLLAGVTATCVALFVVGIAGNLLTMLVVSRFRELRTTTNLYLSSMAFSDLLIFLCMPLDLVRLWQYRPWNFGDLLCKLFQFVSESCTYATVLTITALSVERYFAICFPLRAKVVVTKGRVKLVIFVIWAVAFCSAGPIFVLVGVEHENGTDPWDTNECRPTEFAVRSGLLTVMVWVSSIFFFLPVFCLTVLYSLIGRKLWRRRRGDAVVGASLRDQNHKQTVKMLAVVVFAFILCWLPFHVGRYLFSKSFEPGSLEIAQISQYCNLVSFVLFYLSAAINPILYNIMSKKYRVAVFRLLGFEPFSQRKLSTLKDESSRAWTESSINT

| Compound | IC50 [1] [nM] | Emax [2] [%] | EC50 [2] [nM] |
| --- | --- | --- | --- |
| C#Cc1ccc(Cl)c(C(=O)NC(=O)Nc2nc3ccc(S(=O)(=O)CCCN4CCN(C)CC4)cc3s2)c1 [Example 220, 2-Chloro-5-ethynyl-N-[[6-[3-(4-methylpiperazin-1-yl)propylsulfonyl]benzothiazol-2-yl]carbamoyl]benzamide] | 2.8 | 21.4 | 4.01 |
| O=C(NC(=O)c1ccccc1Cl)Nc1nc2ccc(S(=O)(=O)CCC3CCNCC3)cc2s1 [Example 221, 2-Chloro-N-[[6-[2-(4-piperidyl)ethylsulfonyl]benzothiazol-2-yl]carbamoyl]benzamide] | 15.4 | 65 | 18.7 |
| COCCNC1CC(S(=O)(=O)c2ccc3nc(NC(=O)NC(=O)c4ccccc4Cl)sc3c2)C1 (stereo not drawn) [Example 222, 2-Chloro-N-[[6-[3-(2-methoxyethylamino)cyclobutyl]sulfonylbenzothiazol-2-yl]carbamoyl]benzamide] | 18.6 | 58.2 | 43 |
| CC(=O)NC1CC(S(=O)(=O)c2ccc3nc(NC(=O)NC(=O)c4ccccc4Cl)sc3c2)C1 (stereo not drawn) [Example 223, N-[[6-(3-Acetamidocyclobutyl)sulfonylbenzothiazol-2-yl]carbamoyl]-2-chlorobenzamide] | 95.8 | 24.8 | 62.1 |
| CC(C)NS(=O)(=O)c1ccc2nc(NC(=O)NC(=O)c3ccccc3Cl)sc2c1 [Example 224, 2-chloro-N-[[6-(isopropylsulfamoyl)-1,3-benzothiazol-2-yl]carbamoyl]benzamide] | 87.8 | 24.3 | 139 |
| CC(C)NCC(C)(C)S(=O)(=O)c1ccc2nc(NC(=O)NC(=O)c3ccccc3Cl)sc2c1 [Example 225, 2-chloro-N-(6-(1-(isopropylamino)-2-methylpropan-2-ylsulfonyl)benzo[d]thiazol-2-ylcarbamoyl)benzamide] | 60.3 | 27.8 | 224 |
| CCc1ccc(Cl)c(C(=O)NC(=O)Nc2nc3ccc(S(=O)(=O)CCCN4CCN(C)CC4)cc3s2)c1 [Example 226, 2-chloro-5-ethyl-N-(6-(3-(4-methylpiperazin-1-yl)propylsulfonyl)-benzo[d]thiazol-2-ylcarbamoyl)benzamide] | 0.05 | 22.3 | 2.19 |
| CC(=O)N1CCC(Oc2ccc(Cl)c(C(=O)NC(=O)Nc3nc4ccc(S(C)(=O)=O)cc4s3)c2)C1 (stereo not drawn) [Example 227, 5-(1-acetylpyrrolidin-3-yloxy)-2-chloro-N-(6-(methylsulfonyl)benzo[d]thiazol-2-ylcarbamoyl)benzamide] | 3790 | 10.6 | ≥ 20000 |
| CC(C)N1CCC[C@H](COc2ccc(Cl)c(C(=O)NC(=O)Nc3nc4ccc(S(C)(=O)=O)cc4s3)c2)C1 [Example 228, (S)-2-chloro-5-((1-isopropylpiperidin-3-yl)methoxy)-N-(6-(methylsulfonyl)benzo[d]thiazol-2-ylcarbamoyl)benzamide] | 1240 | 9.89 | 1370 |
| NS(=O)(=O)c1ccc2nc(NC(=O)NC(=O)c3ccccc3Cl)sc2c1 [Example 229, 2-chloro-N-[(6-sulfamoyl-1,3-benzothiazol-2-yl)carbamoyl] benzamide] | 1970 | 18.2 | 117 |
| CNS(=O)(=O)c1ccc2nc(NC(=O)NC(=O)c3ccccc3Cl)sc2c1 [Example 230, 2-chloro-N-[[6-(methylsulfamoyl)-1,3-benzothiazol-2-yl]carbamoyl] benzamide] | 19.3 | 12.6 | 46.5 |
| O=C(NC(=O)c1ccccc1Cl)Nc1nc2ccc(S(=O)(=O)NCCO)cc2s1 [Example 231, 2-chloro-N-[[6-(2-hydroxyethyl-sulfamoyl)-1,3-benzothiazol-2-yl]carbamoyl] benzamide] | 67.3 | 15.7 | 72.1 |
| CN(C)S(=O)(=O)c1ccc2nc(NC(=O)NC(=O)c3ccccc3Cl)sc2c1 [Example 232, 2-chloro-N-[[6-(dimethylsulfamoyl)-1,3-benzothiazol-2-yl]carbamoyl] benzamide] | 31.4 | 12.6 | 56.1 |
| CN(C)[C@@H]1CCN(c2ccc(Cl)c(C(=O)NC(=O)Nc3nc4ccc(S(C)(=O)=O)cc4s3)c2)C1 [Example 233, (R)-2-chloro-5-(3-(dimethylamino)pyrrolidin-1-yl)-N-(6-(methylsulfonyl)benzo[d]thiazol-2-ylcarbamoyl) benzamide] | 39.1 | 10.4 | ≥ 20000 |
| CC(C)(C)OC(=O)N1CCN(c2ccc(Cl)c(C(=O)NC(=O)Nc3nc4ccc(S(C)(=O)=O)cc4s3)c2)CC1 [Example 234, tert-butyl 4-(4-chloro-3-(6-(methylsulfonyl)benzo[d]thiazol-2-ylcarbamoyl-carbamoyl)phenyl) piperazine-1-carboxylate] | 3.82 | 6.73 | ≥ 20000 |
| CN(C)[C@H]1CCN(c2ccc(Cl)c(C(=O)NC(=O)Nc3nc4ccc(S(C)(=O)=O)cc4s3)c2)C1 [Example 235, (S)-2-chloro-5-(3-(dimethylamino)pyrrolidin-1-yl)-N-(6-(methylsulfonyl)benzo[d]thiazol-2-ylcarbamoyl) benzamide] | 22.7 | 19.6 | ≥ 20000 |
| CN(C)C1CCN(c2ccc(Cl)c(C(=O)NC(=O)Nc3nc4ccc(S(C)(=O)=O)cc4s3)c2)CC1 [Example 236, 2-chloro-5-(4-(dimethylamino)piperidin-1-yl)-N-(6-(methylsulfonyl)benzo[d]thiazo1-2-ylcarbamoyl) benzamide] | 4090 | 3.72 | ≥ 20000 |
| Cc1cc(C)n(-c2ccc(Cl)c(C(=O)NC(=O)Nc3nc4ccc(S(=O)(=O)CCCN5CCN(C)CC5)cc4s3)c2)n1 [Example 237, 2-chloro-5-(3,5-dimethyl-1H-pyrazol-1-yl)-N-(6-(3-(4-methylpiperazin-1-yl)propylsulfonyl)benzo[d]thiazol-2-ylcarbamoyl) benzamide] | 0.7 | 0 | ≥ 20000 |
| CN1CCCN(CCCS(=O)(=O)c2ccc3nc(NC(=O)NC(=O)c4cc(I)ccc4Cl)sc3c2)CC1 [Example 238, 2-chloro-5-iodo-N-(6-(3-(4-methyl-1,4-diazepan-1-yl)propylsulfonyl)benzo[d]thiazol-2-ylcarbamoyl) benzamide] | 0.47 | 9.98 | 43.4 |
| CCN(CC)C1CCN(c2ccc(Cl)c(C(=O)NC(=O)Nc3nc4ccc(S(C)(=O)=O)cc4s3)c2)C1 (stereo not drawn) [Example 239, 2-chloro-5-(3-(diethylamino)pyrrolidin-1-yl)-N-(6-(methylsulfonyl)benzo[d]thiazol-2-ylcarbamoyl) benzamide] | 150 | 0 | ≥ 20000 |
| CN1CCN(CCCS(=O)(=O)c2ccc3nc(NC(=O)NC(=O)c4cccc(-n5cccn5)c4Cl)sc3c2)CC1 [Example 240, 2-chloro-N-(6-(3-(4-methylpiperazin-1-yl)propylsulfonyl)benzo[d]thiazol-2-ylcarbamoyl)-3-(1H-pyrazol-1-yl)benzamide] | 8.83 | 80.9 | 28.1 |
| CN1CCN(CCCS(=O)(=O)c2ccc3nc(NC(=O)NC(=O)c4cc(-n5cccn5)c(Cl)cc4Cl)sc3c2)CC1 [Example 241, 2,4-dichloro-N-(6-(3-(4-methylpiperazin-1-yl)propylsulfonyl)benzo[d]thiazol-2-ylcarbamoyl)-5-(1H-pyrazol-1-yl)benzamide] | 0.31 | 0 | ≥ 20000 |
| COc1cc(Cl)c(C(=O)NC(=O)Nc2nc3ccc(S(=O)(=O)CCCN4CCN(C)CC4)cc3s2)cc1-n1cccn1 [Example 242, 2-chloro-4-methoxy-N-(6-(3-(4-methylpiperazin-1-yl)propylsulfonyl)benzo[d]thiazol-2-ylcarbamoyl) 5-(1H-pyrazol-1-yl)benzamide] | 0.62 | 9.32 | ≥ 20000 |
| CC(C)(C)OC(=O)N1CCC(Oc2ccc(Cl)c(C(=O)NC(=O)Nc3nc4ccc(S(C)(=O)=O)cc4s3)c2)CC1 [Example 243, tert-butyl 4-(4-chloro-3-(6-(methylsulfonyl)benzo[d]thiazol-2-ylcarbamoyl-carbamoyl)phenoxy) piperidine-1-carboxylate] | 14.3 | 7.67 | 9.34 |
| CN1CCC(Oc2ccc(Cl)c(C(=O)NC(=O)Nc3nc4ccc(S(C)(=O)=O)cc4s3)c2)CC1 [Example 244, 2-chloro-5-(1-methylpiperidin-4-yloxy)-N-(6-(methylsulfonyl)benzo[d]thiazol-2-ylcarbamoyl) benzamide] | 2060 | 22.6 | 19700 |
| CC(C)(CN1CCCC1)S(=O)(=O)c1ccc2nc(NC(=O)NC(=O)c3cc(N4CCOCC4)ccc3Cl)sc2c1 [Example 245, 2-chloro-N-(6-(2-methyl-1-(pyrrolidin-1-yl)propan-2-ylsulfonyl)benzo[d]thiazol-2-ylcarbamoyl)-5-morpholino-benzamide] | 6.52 | 0 | ≥ 20000 |
| CC(C)NCC(C)(C)S(=O)(=O)c1ccc2nc(NC(=O)NC(=O)c3cc(N4CCOCC4)ccc3Cl)sc2c1 [Example 246, 2-chloro-N-(6-(1-(isopropylamino)-2-methylpropan-2-ylsulfonyl)benzo[d]thiazol-2-ylcarbamoyl)-5-morpholino-benzamide] | 2.08 | 0 | ≥ 20000 |
| CN(C)c1cccnc1-c1ccc(Cl)c(C(=O)NC(=O)Nc2nc3ccc(S(C)(=O)=O)cc3s2)c1 [Example 247] | 452 | 0 | ≥ 20000 |
